Calls of active or inactive are those of the source. No cut-off for these calls is given here. Where a SMILES comes first, the peptide text is derived from it. [ ]: non-standard residue; d: D form. Aib = CC(C)(N)C(=O)O
Assays:
[1] = Ion conductance property of compound in Diphytanoylphosphatidyl-choline bilayer assessed as ion channel forming ability at 1 uM treated at cis-side of the membrane at +100 mV by tip-dip patch clamp method
[2] = test system: Erythrocyte; experiment: Hemolytic activity in human erythrocytes at 50 ug/ml incubated for 1 hr by absorbance based analysis; format: toxicity, cell-based; conditions: dose 50 µg/ml
[3] = test system: Erythrocyte; experiment: Hemolytic activity in human erythrocytes at 10 ug/ml incubated for 1 hr by absorbance based analysis; format: toxicity, cell-based; conditions: dose 10 µg/ml

| SMILES | Activity [1] | Activity [2] | Activity [3] |
| --- | --- | --- | --- |
| CC[C@H](C)[C@H](NC(=O)[C@H](CC(N)=O)NC(=O)C(C)(C)NC(C)=O)C(=O)N[C@H](C(=O)NC(C)(C)C(=O)N1CCC[C@H]1C(=O)N[C@@H](CC(C)C)C(=O)N[C@@H](CC(C)C)C(=O)NC(C)(C)C(=O)N1CCC[C@H]1C(=O)N[C@@H](CC(C)C)C(=O)O)[C@@H](C)CC (Ac-[Aib]NII[Aib]PLL[Aib]PL-OH) | Active | Toxic | Non-Toxic |
| CC[C@H](C)[C@H](NC(=O)[C@H](CC(N)=O)NC(=O)C(C)(C)NC(C)=O)C(=O)N[C@H](C(=O)NC(C)(C)C(=O)N1CCC[C@H]1C(=O)N[C@H](C(=O)N[C@@H](CC(C)C)C(=O)NC(C)(C)C(=O)N1CCC[C@H]1C(=O)N[C@@H](CC(C)C)C(=O)O)[C@@H](C)CC)[C@@H](C)CC (Ac-[Aib]NII[Aib]PIL[Aib]PL-OH) | inactive | Toxic | Non-Toxic |
| CC[C@H](C)[C@H](NC(=O)[C@H](CC(C)C)NC(=O)[C@@H]1CCCN1C(=O)C(C)(C)NC(=O)[C@H](CC(C)C)NC(=O)[C@H](CC(C)C)NC(=O)[C@H](CC(N)=O)NC(=O)C(C)(C)NC(C)=O)C(=O)NC(C)(C)C(=O)N1CCC[C@H]1C(=O)N[C@@H](CC(C)C)C(=O)O (Ac-[Aib]NLL[Aib]PLI[Aib]PL-OH) |  | Toxic | Non-Toxic |
| CC[C@H](C)[C@H](NC(=O)[C@H](CC(N)=O)NC(=O)C(C)(C)NC(C)=O)C(=O)N[C@@H](CC(C)C)C(=O)NC(C)(C)C(=O)N1CCC[C@H]1C(=O)N[C@@H](CC(C)C)C(=O)N[C@@H](CC(C)C)C(=O)NC(C)(C)C(=O)N1CCC[C@H]1C(=O)N[C@@H](CC(C)C)C(=O)O (Ac-[Aib]NIL[Aib]PLL[Aib]PL-OH) | inactive | Toxic | Non-Toxic |
| CC[C@H](C)[C@H](NC(=O)[C@@H]1CCCN1C(=O)C(C)(C)NC(=O)[C@@H](NC(=O)[C@@H](NC(=O)[C@@H]1CCCN1C(=O)C(C)(C)NC(=O)[C@@H](NC(=O)[C@@H](NC(=O)[C@H](CC(N)=O)NC(=O)C(C)(C)NC(C)=O)[C@@H](C)CC)[C@@H](C)CC)[C@@H](C)CC)[C@@H](C)CC)C(=O)O (Ac-[Aib]NII[Aib]PII[Aib]PI-OH) | Active | Toxic | Non-Toxic |
| CC[C@H](C)[C@H](NC(=O)[C@@H]1CCCN1C(=O)C(C)(C)NC(=O)[C@@H](NC(=O)[C@H](CC(C)C)NC(=O)[C@@H]1CCCN1C(=O)C(C)(C)NC(=O)[C@H](CC(C)C)NC(=O)[C@H](CC(C)C)NC(=O)[C@H](CC(N)=O)NC(=O)C(C)(C)NC(C)=O)[C@@H](C)CC)C(=O)O (Ac-[Aib]NLL[Aib]PLI[Aib]PI-OH) | Active | Toxic |  |
| CC[C@H](C)[C@H](NC(=O)[C@H](CC(N)=O)NC(=O)C(C)(C)NC(C)=O)C(=O)N[C@H](C(=O)NC(C)(C)C(=O)N1CCC[C@H]1C(=O)N[C@H](C(=O)N[C@H](C(=O)NC(C)(C)C(=O)N1CCC[C@H]1C(=O)N[C@@H](CC(C)C)C(=O)O)[C@@H](C)CC)[C@@H](C)CC)[C@@H](C)CC (Ac-[Aib]NII[Aib]PII[Aib]PL-OH) | Active | Toxic |  |
| CC[C@H](C)[C@H](NC(=O)[C@@H]1CCCN1C(=O)C(C)(C)NC(=O)[C@@H](NC(=O)[C@@H](NC(=O)[C@@H]1CCCN1C(=O)C(C)(C)NC(=O)[C@H](CC(C)C)NC(=O)[C@H](CC(C)C)NC(=O)[C@H](CC(N)=O)NC(=O)C(C)(C)NC(C)=O)[C@@H](C)CC)[C@@H](C)CC)C(=O)O (Ac-[Aib]NLL[Aib]PII[Aib]PI-OH) | Active | Toxic |  |
| CC(=O)NC(C)(C)C(=O)N[C@@H](CC(N)=O)C(=O)N[C@@H](CC(C)C)C(=O)N[C@@H](CC(C)C)C(=O)NC(C)(C)C(=O)N1CCC[C@H]1C(=O)N[C@@H](CC(C)C)C(=O)N[C@@H](CC(C)C)C(=O)NC(C)(C)C(=O)N1CCC[C@H]1C(=O)N[C@@H](CC(C)C)C(=O)O (Ac-[Aib]NLL[Aib]PLL[Aib]PL-OH) | inactive | Toxic | Non-Toxic |
| CC[C@H](C)[C@H](NC(=O)[C@@H]1CCCN1C(=O)C(C)(C)NC(=O)[C@@H](NC(=O)[C@@H](NC(=O)[C@@H]1CCCN1C(=O)C(C)(C)NC(=O)[C@@H](NC(=O)[C@H](CC(C)C)NC(=O)[C@H](CC(N)=O)NC(=O)C(C)(C)NC(C)=O)[C@@H](C)CC)[C@@H](C)CC)[C@@H](C)CC)C(=O)O (Ac-[Aib]NLI[Aib]PII[Aib]PI-OH) | Active | Toxic | Non-Toxic |
| CC[C@H](C)[C@H](NC(=O)[C@H](CC(C)C)NC(=O)[C@H](CC(N)=O)NC(=O)C(C)(C)NC(C)=O)C(=O)NC(C)(C)C(=O)N1CCC[C@H]1C(=O)N[C@H](C(=O)N[C@H](C(=O)NC(C)(C)C(=O)N1CCC[C@H]1C(=O)N[C@@H](CC(C)C)C(=O)O)[C@@H](C)CC)[C@@H](C)CC (Ac-[Aib]NLI[Aib]PII[Aib]PL-OH) | inactive | Toxic | Non-Toxic |
| CC[C@H](C)[C@H](NC(=O)[C@@H]1CCCN1C(=O)C(C)(C)NC(=O)[C@H](CC(C)C)NC(=O)[C@H](CC(C)C)NC(=O)[C@@H]1CCCN1C(=O)C(C)(C)NC(=O)[C@@H](NC(=O)[C@@H](NC(=O)[C@H](CC(N)=O)NC(=O)C(C)(C)NC(C)=O)[C@@H](C)CC)[C@@H](C)CC)C(=O)O (Ac-[Aib]NII[Aib]PLL[Aib]PI-OH) | Active | Toxic | Non-Toxic |
| CC[C@H](C)[C@H](NC(=O)[C@@H](NC(=O)[C@@H]1CCCN1C(=O)C(C)(C)NC(=O)[C@H](CC(C)C)NC(=O)[C@H](CC(C)C)NC(=O)[C@H](CC(N)=O)NC(=O)C(C)(C)NC(C)=O)[C@@H](C)CC)C(=O)NC(C)(C)C(=O)N1CCC[C@H]1C(=O)N[C@@H](CC(C)C)C(=O)O (Ac-[Aib]NLL[Aib]PII[Aib]PL-OH) |  | Toxic | Non-Toxic |
| CC[C@H](C)[C@H](NC(=O)[C@@H]1CCCN1C(=O)C(C)(C)NC(=O)[C@H](CC(C)C)NC(=O)[C@H](CC(C)C)NC(=O)[C@@H]1CCCN1C(=O)C(C)(C)NC(=O)[C@H](CC(C)C)NC(=O)[C@H](CC(C)C)NC(=O)[C@H](CC(N)=O)NC(=O)C(C)(C)NC(C)=O)C(=O)O (Ac-[Aib]NLL[Aib]PLL[Aib]PI-OH) | Active | Toxic | Non-Toxic |
| CC[C@H](C)[C@H](NC(=O)[C@@H]1CCCN1C(=O)C(C)(C)NC(=O)[C@H](CC(C)C)NC(=O)[C@@H](NC(=O)[C@@H]1CCCN1C(=O)C(C)(C)NC(=O)[C@@H](NC(=O)[C@@H](NC(=O)[C@H](CC(N)=O)NC(=O)C(C)(C)NC(C)=O)[C@@H](C)CC)[C@@H](C)CC)[C@@H](C)CC)C(=O)O (Ac-[Aib]NII[Aib]PIL[Aib]PI-OH) | Active | Toxic | Non-Toxic |

From ChEMBL document CHEMBL5576117, “Importance of isoleucine residue in ion channel formation ability of 11-residue peptaibols” (Bioorg Med Chem, 2024)
